Results taken from article PMC7391767, “Molecular mechanisms underlying menthol binding and activation of TRPM8 ion channel” (Nature Communications, 2020).
Where “and” joins values, the source holds several entries; their conditions need not be identical. Equal values may be shown once.

Assays:
Assay type in all cases: cell-based
Set-up in all cases: Shifts in ANAP emission, Ave: unit: nm
ANAP-incorporated TRPM8 [1] = target: T1, ANAP-incorporated TRPM8 (Mus musculus, UniProt Q8R4D5, S820X); conditions: ANAP incorporation site S820; average shift, menthol activated vs resting state
T1 construct: expressed in transfected cells; host or cells: HEK293 cells, co-transfected with the pANAP vector
Method: (§1) As fluorescence emission peak of ANAP shifts to a longer wavelength in more hydrophilic environment, we measured the shift in ANAP emission peak to report conformational changes. Fluorescence properties of ANAP may also be affected by other factors such as temperature and pH[31], so we performed our ANAP experiments always at room temperature (22 ± 1°C). To control for changes in solution pH, we added 3 mM HEPES in ANAP imaging solution to buffer the pH at 7.2. We genetically integrated ANAP into a specific site on TRPM8 with special tRNA and synthetase encoded by pANAP vector (Fig. 5d).
(§2) L-ANAP methyl ester was purchased from AsisChem. pANAP vector was purchased from Addgene. ANAP was incorporated into TRPM8 by introducing a TAG amber stop codon mutation as previously reported. Briefly, after co-transfection of both TRPM8 and pANAP vectors, ANAP was directly added to the culture medium to the final concentration of 20 µM. After 1–2 days, ANAP-containing culture medium was completely changed. Cells were further cultured in ANAP-free medium overnight before experiments.
(§3) ANAP fluorescence was excited by the Ar laser with a 375/28 excitation filter, a T400lp dichroic mirror, and a 435LP emission filter on an inverted fluorescence microscope (Nikon TE2000-U) using a ×40 oil-immersion objective (NA 1.3). Emission spectrum of ANAP was imaged with an Acton SpectraPro 2150i spectrograph in conjunction with an optiMOS CCD camera (Qimaging, USA). We determined the ANAP emission peak value by fitting the emission spectrum with a skewed Gauss distribution in Igor Pro version 6.1 (WaveMatrix), and then the difference in emission peak values measured in the absence and presence of menthol was reported as the shift of ANAP emission.

ANAP-incorporated TRPM8 [2] = target: T2, ANAP-incorporated TRPM8 (Mus musculus, UniProt Q8R4D5, W954X); conditions: ANAP incorporation site W954, menthol activated vs resting state
T2 construct: expressed in transfected cells; host or cells: HEK293 cells, co-transfected with the pANAP vector
Method: as §1, §2, §3

ANAP-incorporated TRPM8 [3] = target: T3, ANAP-incorporated TRPM8 (Mus musculus, UniProt Q8R4D5, W898X); conditions: ANAP incorporation site W898
T3 construct: expressed in transfected cells; host or cells: HEK293 cells, co-transfected with the pANAP vector
Method: as §1, §2, §3

ANAP-incorporated TRPM8 [4] = target: T4, ANAP-incorporated TRPM8 (Mus musculus, UniProt Q8R4D5, L774X)
T4 construct: expressed in transfected cells; host or cells: HEK293 cells, co-transfected with the pANAP vector
Method: as §1, §2, §3

ANAP-incorporated TRPM8 [5] = target: T5, ANAP-incorporated TRPM8 (Mus musculus, UniProt Q8R4D5, N852X); conditions: ANAP incorporation site N852
T5 construct: expressed in transfected cells; host or cells: HEK293 cells, co-transfected with the pANAP vector
Method: as §1, §2, §3

ANAP-incorporated TRPM8 [6] = target: T6, ANAP-incorporated TRPM8 (Mus musculus, UniProt Q8R4D5, Y808X); conditions: ANAP incorporation site Y808; average shift, menthol activated vs resting state
T6 construct: expressed in transfected cells; host or cells: HEK293 cells, co-transfected with the pANAP vector
Method: as §1, §2, §3

ANAP-incorporated TRPM8 [7] = target: T7, ANAP-incorporated TRPM8 (Mus musculus, UniProt Q8R4D5, L939X)
T7 construct: expressed in transfected cells; host or cells: HEK293 cells, co-transfected with the pANAP vector
Method: as §1, §2, §3

ANAP-incorporated TRPM8 [8] = target: T8, ANAP-incorporated TRPM8 (Mus musculus, UniProt Q8R4D5, Q1003X); conditions: ANAP incorporation site Q1003; average shift, menthol activated vs resting state
T8 construct: expressed in transfected cells; host or cells: HEK293 cells, co-transfected with the pANAP vector
Method: as §1, §2, §3

ANAP-incorporated TRPM8 [9] = target: T9, ANAP-incorporated TRPM8 (Mus musculus, UniProt Q8R4D5, D944X); conditions: ANAP incorporation site D944
T9 construct: expressed in transfected cells; host or cells: HEK293 cells, co-transfected with the pANAP vector
Method: as §1, §2, §3

ANAP-incorporated TRPM8 [10] = target: T10, ANAP-incorporated TRPM8 (Mus musculus, UniProt Q8R4D5, T922X)
T10 construct: expressed in transfected cells; host or cells: HEK293 cells, co-transfected with the pANAP vector
Method: as §1, §2, §3

ANAP-incorporated TRPM8 [11] = target: T11, ANAP-incorporated TRPM8 (Mus musculus, UniProt Q8R4D5, S921X); conditions: ANAP incorporation site S921
T11 construct: expressed in transfected cells; host or cells: HEK293 cells, co-transfected with the pANAP vector
Method: as §1, §2, §3

ANAP-incorporated TRPM8 [12] = target: T12, ANAP-incorporated TRPM8 (Mus musculus, UniProt Q8R4D5, F872X); conditions: ANAP incorporation site F872
T12 construct: expressed in transfected cells; host or cells: HEK293 cells, co-transfected with the pANAP vector
Method: as §1, §2, §3

ANAP-incorporated TRPM8 [13] = target: T13, ANAP-incorporated TRPM8 (Mus musculus, UniProt Q8R4D5, V791X)
T13 construct: expressed in transfected cells; host or cells: HEK293 cells, co-transfected with the pANAP vector
Method: as §1, §2, §3

ANAP-incorporated TRPM8 [14] = target: T14, ANAP-incorporated TRPM8 (Mus musculus, UniProt Q8R4D5, S823X); conditions: ANAP incorporation site S823
T14 construct: expressed in transfected cells; host or cells: HEK293 cells, co-transfected with the pANAP vector
Method: as §1, §2, §3

ANAP-incorporated TRPM8 [15] = target: T15, ANAP-incorporated TRPM8 (Mus musculus, UniProt Q8R4D5, L943X); conditions: ANAP incorporation site L943
T15 construct: expressed in transfected cells; host or cells: HEK293 cells, co-transfected with the pANAP vector
Method: as §1, §2, §3

[16] = average shift, menthol activated vs resting state
[17] = menthol activated vs resting state, single measurement

For `CC(C)[C@@H]1CC[C@@H](C)C[C@H]1O` [menthol, (−)-menthol], the Shifts_ave (ANAP-incorporated TRPM8 [1]) was 0.28 nm, the Shifts_ave (ANAP-incorporated TRPM8 [2]; average shift) was 1.45 nm and the Shifts in emission (ANAP-incorporated TRPM8 [2]; single measurement) was 1.59 nm and 1.14 nm and 1.76 nm and 1.68 nm and 1.08 nm. For the same compound, the Shifts_ave (ANAP-incorporated TRPM8 [3]; [16]) was -1.33 nm, the “Emission Peak at menthol activated state” value (ANAP-incorporated TRPM8 [3]; single measurement) was 483.12 nm and 481.69 nm and 486.71 nm and 481.28 nm and the “Shifts in ANAP emission, Ave” value (ANAP-incorporated TRPM8 [4]; ANAP at L774) was 2.36. For the same compound, the Shifts_ave (ANAP-incorporated TRPM8 [4]; ANAP incorporation site L774, average shift, menthol activated vs resting state) was 2.3625 nm, the “Emission Peak at menthol activated state” value (ANAP-incorporated TRPM8 [4]; ANAP incorporation site L774, single measurement) was 484.17 nm and 483.39 nm and 483.98 nm and 484.46 nm and 486.95 nm and 482.2 nm and 480.79 nm and the Shifts_ave (ANAP-incorporated TRPM8 [5]; [16]) was 1.13 nm. For the same compound, the Shifts in emission (ANAP-incorporated TRPM8 [5]; [17]) was 1.32 nm and 1.2 nm and 0.75 nm and 1.07 nm, the “Emission Peak at menthol activated state” value (ANAP-incorporated TRPM8 [5]; single measurement) was 487.02 nm and 492.63 nm and 483.01 nm and 479.1 nm and 483.68 nm and the Shifts_ave (ANAP-incorporated TRPM8 [6]) was 1.79 nm. For the same compound, the “Shifts in ANAP emission, Ave” value (ANAP-incorporated TRPM8 [7]; ANAP at L939) was 2.11, the Shifts_ave (ANAP-incorporated TRPM8 [7]; ANAP incorporation site L939, average shift, menthol activated vs resting state) was 2.11 nm and the Shifts in emission (ANAP-incorporated TRPM8 [7]; ANAP incorporation site L939, menthol activated vs resting state, single measurement) was 2.38 nm and 1.56 nm and 2.39 nm. For the same compound, the “Emission Peak at menthol activated state” value (ANAP-incorporated TRPM8 [7]; ANAP incorporation site L939, single measurement) was 484.67 nm and 488.02 nm and 485.09 nm, the Shifts_ave (ANAP-incorporated TRPM8 [8]) was 1.02 nm and the Shifts_ave (ANAP-incorporated TRPM8 [9]; [16]) was -0.0133 nm. The “Emission Peak at menthol activated state” value (ANAP-incorporated TRPM8 [9]; single measurement) was 482.52 nm and 471.8 nm and 476.65 nm and 473.2 nm and 484.21 nm and 484.16 nm, the “Shifts in ANAP emission, Ave” value (ANAP-incorporated TRPM8 [10]; ANAP at T922) was -2.55 and the Shifts_ave (ANAP-incorporated TRPM8 [10]; ANAP incorporation site T922, average shift, menthol activated vs resting state) was -2.55 nm. For the same compound, the “Emission Peak at menthol activated state” value (ANAP-incorporated TRPM8 [10]; ANAP incorporation site T922, single measurement) was 473.38 nm and 482.56 nm and 468.55 nm and 478.75 nm and 477.12 nm, the Shifts_ave (ANAP-incorporated TRPM8 [11]; [16]) was 1.07 nm and the Shifts in emission (ANAP-incorporated TRPM8 [11]; [17]) was 1.34 nm and 1.13 nm and 1.09 nm and 0.99 nm and 0.8 nm. For the same compound, the “Emission Peak at menthol activated state” value (ANAP-incorporated TRPM8 [11]; single measurement) was 493.48 nm and 489.7 nm and 490.23 nm and 494.29 nm and 493.18 nm, the Shifts_ave (ANAP-incorporated TRPM8 [12]; [16]) was 0.53 nm and the “Emission Peak at menthol activated state” value (ANAP-incorporated TRPM8 [12]; single measurement) was 477.57 nm and 487.64 nm and 475.42 nm and 485.75 nm and 480.39 nm. For the same compound, the “Shifts in ANAP emission, Ave” value (ANAP-incorporated TRPM8 [13]; ANAP at V791) was 2.05, the Shifts_ave (ANAP-incorporated TRPM8 [13]; ANAP incorporation site V791, average shift, menthol activated vs resting state) was 2.05 nm and the Shifts_ave (ANAP-incorporated TRPM8 [14]; [16]) was 0.97 nm. The “Emission Peak at menthol activated state” value (ANAP-incorporated TRPM8 [14]; single measurement) was 488.83 nm and 484.77 nm and 484.58 nm and 485.28 nm, the Shifts_ave (ANAP-incorporated TRPM8 [15]; [16]) was -0.71 nm and the “Emission Peak at menthol activated state” value (ANAP-incorporated TRPM8 [15]; single measurement) was 476.85 nm and 475.15 nm and 483.93 nm and 482.35 nm and 475.81 nm and 479.5 nm.
